The record followed here is ChEMBL document CHEMBL1127713, “Anti-HIV activity of N-(2,3-dihalogenopropyl)- and N-allyl-glycine containing pentapeptides” (Bioorg Med Chem Lett, 1994).

In brackets after ≈: the same amount, converted by molar mass. Several values for one entry are separate records, joined by “and”; a condition that tells them apart may be missing. Equal entries are not always repeated. Starred links: 1 amine or outer side, 2 acyl side, 3 side chain; linkers in the order of their positions; H or OH if unused. Non-standard residues stand in square brackets, D forms with d. Residues, ends and D or L forms follow the SMILES beside them. *: point of attachment. X2 = C=CCN([C@@H](C)C(=O)[*:2])[*:1]; X1 = O=C(CN(CC(Br)CBr)[*:1])[*:2]; X3 = O=C(CN(CC(Cl)CCl)[*:1])[*:2]; NAllylGly = C=CCNCC(=O)O; Boc = CC(C)(C)OC(=O)*

For assay [1], the target named is Human immunodeficiency virus type 1 protease (Human immunodeficiency virus 1, UniProt Q72874). In words: Antiviral activity against HIV-1 in CEM cells. In kind it is functional, cell-based. As to conditions: ccrf-cem; call rule not given here.
The target in assay [2] is Human immunodeficiency virus type 1 protease (Human immunodeficiency virus 1) (UniProt Q72874). Nature of the assay: Inhibitory activity against HIV-1 Protease using Suc-TLNFPIS-4-AMC as substrate in fluorescence assay at 10e-5 concentration.
Assay [3] shares this target. Nature of the assay: Inhibitory activity against HIV-1 Protease using VSQNF(NO2)PIV as substrate in spectrophotometric assay at 10e-5 concentration.
Assay [4] relates to CCRF-CEM. In words: Compound was tested for antiviral activity against HIV-1 in CEM cells; Non active compound. In kind it is functional, cell-based, Homo sapiens.
In assay [5] the test system is CCRF-CEM. In words: Compound was tested for antiviral activity against HIV-1 in CEM cells. In kind it is functional, cell-based. As to conditions: Homo sapiens.
Assay [6] has as its system CCRF-CEM. In words: Dose required for reduce the reverse transcriptase activity in infected cell supernatant. In kind it is functional, cell-based. To be noted: Homo sapiens.
The nature of assay [7]: Selectivity index between IC50 and EC50. The assay is classed as functional.

Consider `C=CCN(CC(=O)N[C@H](C(=O)N[C@H](C(=O)OC)C(C)C)[C@@H](C)CC)C(=O)OC(C)(C)C`, for which the half-maximal effective concentration (EC50) entry in assay [1] is reported as “Not Active”.

Consider `C=CCN(C(=O)[C@H](Cc1ccccc1)NC(=O)OC(C)(C)C)[C@@H](C)C(=O)N[C@H](C(=O)N[C@H](C(=O)OC)C(C)C)[C@@H](C)CC`, for which the EC50 result in assay [1] is reported as “Not Active”. Besides, the inhibition in assay [2] is 3%; in assay [3] it was 0% and 7%.

Turning to `C=CCNCC(=O)N[C@H](C(=O)N[C@H](C(=O)OC)C(C)C)[C@@H](C)CC`, the EC50 result in assay [1] is “Not Active”.

As for `CC[C@H](C)[C@H](NC(=O)CN(CC(Cl)CCl)C(=O)[C@H](Cc1ccccc1)NC(=O)OC(C)(C)C)C(=O)N[C@H](C(=O)OC)C(C)C` (stereo partly specified), the EC50 result in assay [1] is recorded as “Not Active”. Besides, the inhibition was 0% in assay [2]; 0% and 2% in assay [3].

`CC[C@H](C)[C@H](NC(=O)CN(CC(Br)CBr)C(=O)[C@H](Cc1ccccc1)NC(=O)OC(C)(C)C)C(=O)N[C@H](C(=O)OC)C(C)C` (stereo partly specified): in assay [1], the EC50 result is “Not Active”. Also, the inhibition in assay [2] is 0%; in assay [3], 8% and 10%.

Consider `C=CCN(CC(=O)N[C@H](C(=O)N[C@H](C(=O)OC)C(C)C)[C@@H](C)CC)C(=O)[C@H](Cc1ccccc1)NC(=O)[C@H](C)NC(=O)[C@H](C)NC(=O)OC(C)(C)C` (Boc-AAF[NAllylGly]IV-OMe), for which the IC50 entry in the assay with CCRF-CEM [4] is “Not Active”. Further, the EC50 result in assay [1] is listed as “Not Active”. The inhibition is 0% in assay [2]; 0% and 21% in assay [3].

Take `C=CCN(C(=O)[C@H](Cc1ccccc1)NC(=O)[C@H](C)NC(=O)[C@H](C)NC(=O)OC(C)(C)C)[C@@H](C)C(=O)N[C@H](C(=O)N[C@H](C(=O)OC)C(C)C)[C@@H](C)CC` (Boc-AAF[X2]IV-OMe): in assay [1], the EC50 result was “Not Active”. For the same compound, the inhibition was 1% in assay [2] and 0% in assay [3].

On to `C=CCN(CC(=O)N[C@H](C(=O)N[C@H](C(=O)OC)C(C)C)[C@@H](C)CC)C(=O)[C@H](Cc1ccccc1)NC(=O)[C@H](C)NC(=O)OC(C)(C)C` (Boc-AF[NAllylGly]IV-OMe), for which the EC50 in the assay with CCRF-CEM [5] was 8.15 µg/mL (≈ 12.4 µM); in the assay with CCRF-CEM [6], 10 µg/mL (≈ 15.2 µM). The inhibition in assay [2] was 0%; in assay [3], 1% and 4%. In assay [7], the Ratio was found to be 4.03.

For the compound `CC[C@H](C)[C@H](NC(=O)CN(CC(Br)CBr)C(=O)[C@H](Cc1ccccc1)NC(=O)[C@H](C)NC(=O)OC(C)(C)C)C(=O)N[C@H](C(=O)OC)C(C)C` (stereo partly specified) (Boc-AF[X1]IV-OMe), the values for the EC50 with CCRF-CEM [5] and in the assay on CCRF-CEM [6] were 111 µg/mL (≈ 135 µM) and 200 µg/mL (≈ 244 µM), respectively. The inhibition in assay [2] was 0%; in assay [3] it was 3% and 0%. For the same compound, the Ratio in assay [7] was more than 4.5.

For `C=CCN(C(=O)[C@H](Cc1ccccc1)NC(=O)[C@H](C)NC(=O)OC(C)(C)C)[C@@H](C)C(=O)N[C@H](C(=O)N[C@H](C(=O)OC)C(C)C)[C@@H](C)CC` (Boc-AF[X2]IV-OMe), the figures for the EC50 in the assay on CCRF-CEM [5] and with CCRF-CEM [6] were 80 µg/mL (≈ 119 µM) and 60 µg/mL (≈ 89 µM), respectively. The inhibition in assay [2] was 0%; in assay [3], 0% and 9%. Also, the Ratio in assay [7] is more than 2.51.

With `CC[C@H](C)[C@H](NC(=O)CN(CC(Cl)CCl)C(=O)[C@H](Cc1ccccc1)NC(=O)[C@H](C)NC(=O)OC(C)(C)C)C(=O)N[C@H](C(=O)OC)C(C)C` (stereo partly specified) (Boc-AF[X3]IV-OMe), the EC50 in the assay with CCRF-CEM [5] was more than 100 µg/mL; in the assay with CCRF-CEM [6], 100 µg/mL (≈ 137 µM). The inhibition in assay [2] was 0%; in assay [3], 0% and 12%.

Consider `C=CCN(CC(=O)N[C@H](C(=O)N[C@H](C(=O)OC)C(C)C)[C@@H](C)CC)C(=O)[C@H](Cc1ccccc1)NC(=O)OC(C)(C)C` (Boc-F[NAllylGly]IV-OMe), for which the EC50 entry in assay [1] is on record as “Not Active”. In addition, the inhibition was 0% in assay [2]; 10% and 13% in assay [3].

For `C=CCN(CC(=O)N[C@H](C(=O)N[C@H](C(=O)OC)C(C)C)[C@@H](C)CC)C(=O)[C@H](Cc1ccccc1)NC(=O)[C@H](C)NC(=O)[C@H](C)NC(=O)[C@H](CO)NC(=O)OC(C)(C)C` (Boc-SAAF[NAllylGly]IV-OMe), the EC50 result in assay [1] is “Not Active”. Besides, the inhibition in assay [2] is 0%; in assay [3], 14% and 0%.

Take `C=CCN(C(=O)[C@H](Cc1ccccc1)NC(=O)[C@H](C)NC(=O)[C@H](C)NC(=O)[C@H](CO)NC(=O)OC(C)(C)C)[C@@H](C)C(=O)N[C@H](C(=O)N[C@H](C(=O)OC)C(C)C)[C@@H](C)CC` (Boc-SAAF[X2]IV-OMe): in assay [1], the concentration for a half-maximal effect (EC50) entry is on record as “Not Active”.

Turning to `C=CCN(CC(=O)N[C@H](C(=O)N[C@H](C(=O)OC)C(C)C)[C@@H](C)CC)C(=O)[C@H](Cc1ccccc1)NC(=O)[C@H](C)N` (H-AF[NAllylGly]IV-OMe), in assay [1], the EC50 result was “Not Active”.

Turning to `C=CCN(CC(=O)N[C@H](C(=O)N[C@H](C(=O)OC)C(C)C)[C@@H](C)CC)C(=O)[C@@H](N)Cc1ccccc1` (H-F[NAllylGly]IV-OMe), in assay [1], the EC50 result is “Not Active”.

By EC50 is commonly meant the concentration giving half of the maximal effect. A higher EC50 goes with weaker potency. Usually inhibition stands for the percentage by which the read-out fell short of the control.
